Here are results for one compound from ChEMBL document CHEMBL5223109, “The discovery of BMS-737 as a potent, CYP17 lyase-selective inhibitor for the treatment of castration-resistant prostate cancer” (Bioorg Med Chem Lett, 2022).

Series [1] deals with T1, Steroid 17-alpha-hydroxylase/17,20 lyase (Macaca fascicularis, UniProt Q2XVA1).
T1 sequence (Q2XVA1 whole entry): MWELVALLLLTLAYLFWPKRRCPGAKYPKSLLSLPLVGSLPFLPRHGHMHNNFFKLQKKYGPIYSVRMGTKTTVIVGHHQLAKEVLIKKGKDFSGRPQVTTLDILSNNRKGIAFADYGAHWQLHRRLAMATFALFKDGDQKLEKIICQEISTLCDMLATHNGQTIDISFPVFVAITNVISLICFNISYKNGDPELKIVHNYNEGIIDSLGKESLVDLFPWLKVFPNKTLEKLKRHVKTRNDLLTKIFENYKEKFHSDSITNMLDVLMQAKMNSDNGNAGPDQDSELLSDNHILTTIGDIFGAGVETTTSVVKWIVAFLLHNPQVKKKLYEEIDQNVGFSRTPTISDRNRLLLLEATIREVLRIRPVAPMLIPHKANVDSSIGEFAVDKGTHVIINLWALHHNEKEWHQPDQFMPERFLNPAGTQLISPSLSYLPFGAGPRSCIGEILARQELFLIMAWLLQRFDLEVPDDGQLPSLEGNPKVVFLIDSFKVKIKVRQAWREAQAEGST
Kind of series: In vivo inhibition of CYP17A1 in cynomolgus monkey assessed as increase in progesterone level in blood at 1 mg/kg, po measured at 4 hrs. The class given is functional, organism-based.

Series [2] is described as follows: Metabolic stability in dog liver microsome assessed as half-life. The class given is ADME, Canis lupus familiaris. Conditions: liver microsomes. A general note: Microsomes from liver hold many membrane-bound enzymes, among them those of drug oxidation.
The nature of series [3]: Half-life in cynomolgus monkey at 1 mg/kg, iv. The class given is ADME, organism-based, Macaca fascicularis. As to conditions: in vivo.
The target of series [4] is T2, Cytochrome P450 1A2 (Homo sapiens, UniProt P05177).
T2 sequence (P05177 whole entry): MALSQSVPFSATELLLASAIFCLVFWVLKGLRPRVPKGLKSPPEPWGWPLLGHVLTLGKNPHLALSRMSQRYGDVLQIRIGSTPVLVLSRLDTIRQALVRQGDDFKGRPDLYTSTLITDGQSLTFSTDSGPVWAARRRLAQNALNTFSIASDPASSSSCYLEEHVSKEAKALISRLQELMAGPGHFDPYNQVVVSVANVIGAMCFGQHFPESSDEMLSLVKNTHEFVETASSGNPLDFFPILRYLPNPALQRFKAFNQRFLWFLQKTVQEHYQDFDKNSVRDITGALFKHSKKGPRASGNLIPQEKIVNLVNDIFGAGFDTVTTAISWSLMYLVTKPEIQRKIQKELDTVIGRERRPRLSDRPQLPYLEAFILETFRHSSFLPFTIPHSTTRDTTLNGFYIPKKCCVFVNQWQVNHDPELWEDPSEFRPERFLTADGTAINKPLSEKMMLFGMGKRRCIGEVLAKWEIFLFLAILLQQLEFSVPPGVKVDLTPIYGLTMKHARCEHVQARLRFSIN
As to the kind of experiment: Inhibition of recombinant human CYP1A2. The class given is ADME.

The nature of series [5]: Inhibition of cynomolgus monkey CYP11B1. The class given is ADME, Macaca fascicularis.
Series [6] deals with T3, Steroid 17-alpha-hydroxylase/17,20 lyase (Homo sapiens, UniProt P05093).
T3 sequence (P05093 whole entry): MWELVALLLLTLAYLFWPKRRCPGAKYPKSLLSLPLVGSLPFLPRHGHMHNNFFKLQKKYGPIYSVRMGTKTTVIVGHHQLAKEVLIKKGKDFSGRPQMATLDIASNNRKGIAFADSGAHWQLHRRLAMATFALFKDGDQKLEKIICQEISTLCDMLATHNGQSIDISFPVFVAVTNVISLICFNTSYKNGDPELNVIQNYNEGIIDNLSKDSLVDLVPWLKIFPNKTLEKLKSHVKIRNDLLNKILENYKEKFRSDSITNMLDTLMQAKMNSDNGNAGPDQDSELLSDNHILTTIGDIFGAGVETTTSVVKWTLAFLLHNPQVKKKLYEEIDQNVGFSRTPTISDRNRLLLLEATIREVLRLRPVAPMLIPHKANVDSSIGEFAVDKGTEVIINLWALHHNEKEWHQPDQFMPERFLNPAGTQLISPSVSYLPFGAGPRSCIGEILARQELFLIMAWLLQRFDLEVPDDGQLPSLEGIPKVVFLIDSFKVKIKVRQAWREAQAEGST
As to the kind of experiment: Inhibition of human CYP17A1. The format is ADME.

The target of series [7] is T1, Steroid 17-alpha-hydroxylase/17,20 lyase. As to the kind of experiment: Selectivity ratio of IC50 for inhibition of cynomolgus monkey CYP17A1 hydroxylase activity to IC50 for inhibition of cynomolgus monkey CYP17A1 lyase activity. The class given is ADME.
For another series, the target named is Cytochrome P450 2C19 (Homo sapiens, UniProt P33261). Kind of series: Inhibition of recombinant human CYP2C19. The format is ADME.
Series [8] has as its target T1, Steroid 17-alpha-hydroxylase/17,20 lyase. Kind of series: In vivo inhibition of CYP17A1 in cynomolgus monkey assessed as fold increase in hydroxyprogesterone level in blood at 1 mg/kg, po measured upto 24 hrs. The class given is functional, organism-based.
A short description of series [9]: Metabolic stability in cynomolgus monkey liver microsome assessed as half-life. The class given is ADME, Macaca fascicularis. Conditions: liver microsomes.
A further series addresses Cytochrome P450 3A4 (Homo sapiens, UniProt P08684). Kind of series: Induction of recombinant human CYP3A4. The format is ADME. As to conditions: recombinant enzyme.
The target in a further series is Cytochrome P450 2C9 (Homo sapiens, UniProt P11712). Kind of series: Inhibition of recombinant human CYP2C9. The format is ADME.
The target of series [10] is T1, Steroid 17-alpha-hydroxylase/17,20 lyase. As to the kind of experiment: In vivo inhibition of CYP17A1 in cynomolgus monkey assessed as increase in hydroxyprogesterone level in blood at 1 mg/kg, po measured at 4 hrs. The class given is functional, organism-based.
The nature of series [11]: Metabolic stability in human liver microsomes assessed as parent compound remaining relative to control. The class given is ADME, Microsome.
The target in series [12] is T1, Steroid 17-alpha-hydroxylase/17,20 lyase. Kind of series: Inhibition of cynomolgus monkey CYP17A1 hydroxylase activity. The format is ADME.
The target in a further series is T4, Steroid 21-hydroxylase (Homo sapiens, UniProt P08686).
T4 sequence (P08686 whole entry): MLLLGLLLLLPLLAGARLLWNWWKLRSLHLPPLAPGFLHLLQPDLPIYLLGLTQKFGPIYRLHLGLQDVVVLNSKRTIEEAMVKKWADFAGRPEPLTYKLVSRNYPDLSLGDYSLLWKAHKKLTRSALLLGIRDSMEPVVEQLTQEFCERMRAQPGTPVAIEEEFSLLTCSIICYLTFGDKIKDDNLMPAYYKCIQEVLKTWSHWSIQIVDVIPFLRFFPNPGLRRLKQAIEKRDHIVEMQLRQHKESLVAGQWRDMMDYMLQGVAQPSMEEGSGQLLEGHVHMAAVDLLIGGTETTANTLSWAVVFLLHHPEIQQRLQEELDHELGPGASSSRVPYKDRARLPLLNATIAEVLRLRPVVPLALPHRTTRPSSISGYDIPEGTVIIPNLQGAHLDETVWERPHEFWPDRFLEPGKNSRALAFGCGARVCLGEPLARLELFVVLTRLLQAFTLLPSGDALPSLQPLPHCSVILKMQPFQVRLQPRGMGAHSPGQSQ
As to the kind of experiment: Inhibition of human CYP21A2. The format is ADME.

Series [13] is described as follows: Permeability across apical to basolateral side in human Caco-2 cells. The format is ADME, cell-based. As to conditions: read-out: permeability. A general note: Caco-2 cells form a polarised layer with tight junctions and transporters.
A short description of series [14]: Metabolic stability in mouse liver microsome assessed as half-life. Conditions: liver microsomes. The class given is ADME.
Series [15] in a line: Permeability across basolateral to apical side in human Caco-2 cells. As to conditions: read-out: permeability. The format is ADME, cell-based.
Series [16] addresses T2, Cytochrome P450 1A2. Kind of series: Inhibition of CYP1A2 (unknown origin). The format is ADME.
A short description of series [17]: Cmax in cynomolgus monkey at 1 mg/kg, po. The class given is ADME, organism-based, Macaca fascicularis. The arrangement: dose 1 mg/kg, route po. Conditions: in vivo.

Where only a bound is given, the exact number is not on record here.

What is called half-life is the time needed for the level to fall by half in the phase considered. What is called IC50 is the concentration needed to halve the response being measured. The Cmax is the highest concentration seen after dosing.

Chain of Cytochrome P450 2C19 (P33261 whole entry): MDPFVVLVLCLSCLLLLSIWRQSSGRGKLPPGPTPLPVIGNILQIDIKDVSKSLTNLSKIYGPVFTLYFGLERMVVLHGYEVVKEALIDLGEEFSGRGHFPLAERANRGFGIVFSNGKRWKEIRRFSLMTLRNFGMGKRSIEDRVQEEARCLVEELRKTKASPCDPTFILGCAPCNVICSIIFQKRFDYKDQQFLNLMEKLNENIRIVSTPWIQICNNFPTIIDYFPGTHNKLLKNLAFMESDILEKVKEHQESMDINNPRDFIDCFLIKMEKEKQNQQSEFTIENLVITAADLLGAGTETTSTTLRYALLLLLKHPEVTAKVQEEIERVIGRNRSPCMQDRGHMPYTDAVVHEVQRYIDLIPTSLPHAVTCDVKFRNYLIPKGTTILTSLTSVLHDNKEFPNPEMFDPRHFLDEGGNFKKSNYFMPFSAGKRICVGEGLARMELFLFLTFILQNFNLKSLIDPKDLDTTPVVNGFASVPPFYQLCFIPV
Chain of Cytochrome P450 2C9 (P11712 whole entry): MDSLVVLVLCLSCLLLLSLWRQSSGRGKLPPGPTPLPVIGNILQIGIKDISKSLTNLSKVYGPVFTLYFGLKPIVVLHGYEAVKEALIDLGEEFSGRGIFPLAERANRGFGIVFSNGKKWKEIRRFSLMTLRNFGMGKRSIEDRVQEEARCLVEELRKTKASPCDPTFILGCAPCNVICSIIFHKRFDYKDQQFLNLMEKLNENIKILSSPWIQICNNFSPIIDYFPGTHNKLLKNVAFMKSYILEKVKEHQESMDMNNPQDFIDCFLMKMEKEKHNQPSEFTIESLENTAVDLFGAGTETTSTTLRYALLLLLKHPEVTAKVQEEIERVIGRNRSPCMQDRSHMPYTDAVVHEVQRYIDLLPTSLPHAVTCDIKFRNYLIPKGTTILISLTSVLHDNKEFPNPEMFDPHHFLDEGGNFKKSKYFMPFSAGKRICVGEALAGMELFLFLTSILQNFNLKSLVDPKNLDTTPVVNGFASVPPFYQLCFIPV
Chain of Cytochrome P450 3A4 (P08684 whole entry): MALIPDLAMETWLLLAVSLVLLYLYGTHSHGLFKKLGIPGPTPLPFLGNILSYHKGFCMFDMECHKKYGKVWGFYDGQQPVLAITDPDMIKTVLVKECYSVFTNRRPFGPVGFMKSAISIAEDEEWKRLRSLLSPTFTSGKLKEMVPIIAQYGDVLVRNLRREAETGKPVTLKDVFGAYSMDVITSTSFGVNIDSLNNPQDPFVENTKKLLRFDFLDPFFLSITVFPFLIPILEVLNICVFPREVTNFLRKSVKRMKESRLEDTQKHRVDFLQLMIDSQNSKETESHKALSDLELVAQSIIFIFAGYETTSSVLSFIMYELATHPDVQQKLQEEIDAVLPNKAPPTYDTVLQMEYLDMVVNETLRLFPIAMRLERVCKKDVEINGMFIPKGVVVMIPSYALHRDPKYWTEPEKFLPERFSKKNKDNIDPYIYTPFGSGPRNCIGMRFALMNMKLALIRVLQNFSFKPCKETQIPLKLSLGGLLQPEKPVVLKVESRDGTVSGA

In the case of `Nc1ncncc1-c1ccnc2c1cnn2-c1ccc(F)cc1`, the figures for the Activity (in [1]; at Cytochrome P450 3A4; in series [10]) were 27 ng/dL, “Not Active” and 7.7 ng/dL, respectively. Further, the half-life was 46 min in series [2], 960 min in series [3], over 120 min in series [9] and 35 min in series [14]. Besides, the IC50 is over 40 µM at Cytochrome P450 1A2 [4]; over 10 µM in series [5]; 0.016 µM in series [6]; over 40 µM on Cytochrome P450 2C19; over 40 µM on Cytochrome P450 2C9; 0.03 µM in [12]. Further, the results for the IC50 against Steroid 21-hydroxylase and against Cytochrome P450 1A2 [16] were over 10 µM and over 40 µM, respectively. In addition, the “Ratio IC50” value in [7] was determined as 5. For the same compound, the “fold change (FC)” value in [8] is 14. Further, in series [11], the Stability was found to be 100%. The Papp A→B in series [13] was 28.2 ×10⁻⁶ cm/s. In series [15], the Papp B→A worked out at 21.2 ×10⁻⁶ cm/s. This compound also showed a Cmax in series [17] of 1550 nM.
